Test in all cases: growth of human tumour cells (NCI), 48 h
For experiment [1], the system named is BT-549.
Experiment [2] relates to ACHN.
In experiment [3] the test system is COLO 205.
In experiment [4] the test system is HOP-62.
Experiment [5] has as its system MCF7.
Experiment [6] concerns LOX IMVI.
For experiment [7], the system named is NCI-H226.
Experiment [8] has as its system UACC-62.
Experiment [9] has as its system RPMI-8226.
Experiment [10] concerns UACC-257.
Experiment [11] deals with SR.
The subject of experiment [12] is U-251.
For experiment [13], the system named is T47D.
Experiment [14] deals with OVCAR-8.
Experiment [15] concerns HCT-15.
Experiment [16] concerns 786-0.
The test system of experiment [17] is SNB-19.
For experiment [18], the system named is NCI/ADR-RES.
Experiment [19] relates to UO-31.
For experiment [20], the system named is LXFL 529.

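Method: 48-hour compound exposure of cells in 96-well plates, five concentrations, linear interpolation of endpoints. The concentration for 50% growth inhibition is given as GI50.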 Activity calls are given as the source filed them. Rule as the data show it: active = GI50 up to about 1.1 µM and inactive = higher.

For `O=S(=O)(/C=C/C=C/S(=O)(=O)c1ccccc1)c1ccccc1`, the GI50 in [1] is 1.15 µM (inactive); in experiment [2], 0.769 µM (active); in experiment [3] it was 1.44 µM (inactive); in experiment [4], 6.76 µM (inactive); in [5], 0.845 µM (active); in [6] it was 0.713 µM (active). Moreover, the GI50 is 7.62 µM (inactive) in experiment [7]; 0.721 µM (active) in [8]; 0.419 µM (active) in experiment [9]; 0.733 µM (active) in experiment [10]; 0.285 µM (active) in experiment [11]; 4.12 µM (inactive) in [12]. In addition, the GI50 in experiment [13] is 1.04 µM (active); in [14] it was 0.573 µM (active); in experiment [15], 1.2 µM; in [16], 0.537 µM (active); in experiment [17], 17.5 µM (inactive); in experiment [18], 1.93 µM (inactive). The GI50 in experiment [19] is 1.46 µM (inactive).
In the case of `COC(=O)c1ccccc1C#CCCCOS(C)(=O)=O`, the GI50 in experiment [1], in experiment [2], in experiment [3], in experiment [4], in experiment [5] and in [6] was > 10 µM (inactive) each time. The GI50 in [7], in experiment [8], in [9], in experiment [10], in experiment [11] and in experiment [12] was > 10 µM (inactive) throughout. Moreover, the GI50 is > 10 µM (inactive) in experiment [13]; > 10 µM (inactive) in [14]; above 10 µM in experiment [15]; > 10 µM (inactive) in experiment [16]; > 10 µM (inactive) in experiment [17]; > 10 µM (inactive) in experiment [18]. For the same molecule, in experiment [19], the GI50 was > 10 µM (inactive).
As to `CN1C/C(=C\C=C\c2ccccc2)C(=O)/C(=C/C=C/c2ccccc2)C1`, the GI50 in experiment [2], in [3], in experiment [4], in experiment [6], in experiment [7] and in experiment [8] was > 100 µM (inactive) in each case. Besides, the GI50 in [20] is 78.7 µM (inactive); in [9], > 100 µM (inactive); in [10], > 100 µM (inactive); in experiment [12], > 100 µM (inactive); in experiment [14] it was 82.2 µM (inactive); in experiment [15], above 100 µM. Also, the figures for the GI50 in experiment [16], in [17] and in experiment [19] were 87.3 µM (inactive), 39.6 µM (inactive) and > 100 µM (inactive), respectively.
`CCc1cccc(C)c1NS(=O)(=O)c1ccccc1`: the GI50 in [2] is > 100 µM (inactive); in experiment [4], > 100 µM (inactive); in [7], 24.3 µM (inactive); in [8], > 100 µM (inactive); in [20], > 100 µM (inactive); in experiment [9] it was > 100 µM (inactive). The GI50 in [10] was > 100 µM (inactive); in experiment [12], > 100 µM (inactive); in experiment [14], > 100 µM (inactive); in experiment [15], above 100 µM; in [16], > 100 µM (inactive); in [19] it was > 100 µM (inactive).
As for `C[C@]12CC[C@H]3[C@@H](CCC4=CC(=O)CC[C@@]43C)[C@]1(O)CC[C@]2(O)C(=O)CO`, the GI50 in experiment [1], in experiment [2], in [3], in experiment [4], in experiment [5] and in experiment [6] was > 100 µM (inactive) each time. In addition, the GI50 in experiment [7], in experiment [8], in [9], in experiment [10], in experiment [11] and in experiment [12] was > 100 µM (inactive) throughout. Moreover, the GI50 in experiment [13] was > 100 µM (inactive); in experiment [14] it was > 100 µM (inactive); in [15] it was above 100 µM; in [16], > 100 µM (inactive); in [17], > 100 µM (inactive); in experiment [18] it was > 100 µM (inactive). In addition, the GI50 in experiment [19] was > 100 µM (inactive).
Regarding `O=C1c2ccccc2CC12Cc1ccc3c(c1C2=O)CCCC3` (stereo not drawn), the GI50 in experiment [1] was > 100 µM (inactive); in experiment [2] it was 7.83 µM (inactive); in experiment [3], 13 µM (inactive); in experiment [4], 7.74 µM (inactive); in [5] it was > 100 µM (inactive); in experiment [6], 19.9 µM (inactive). For the same molecule, the GI50 in experiment [7] was 24 µM (inactive); in experiment [8] it was 8.2 µM (inactive); in experiment [9] it was 18.2 µM (inactive); in experiment [10], > 100 µM (inactive); in [11] it was 2.87 µM (inactive); in experiment [12] it was 35.2 µM (inactive). For the same molecule, the GI50 was 1.39 µM (inactive) in experiment [13]; 26 µM (inactive) in [14]; 5.13 µM in experiment [15]; 7.85 µM (inactive) in experiment [16]; 20.7 µM (inactive) in [17]; 7.06 µM (inactive) in experiment [18]. Further, the GI50 in experiment [19] is 9.27 µM (inactive).
As for `O=C1Nc2ccc(Cl)cc2C(=O)N2CCC[C@@H]12`, the GI50 in [1], in experiment [2], in [3], in [4], in experiment [5] and in [6] was > 100 µM (inactive) each time. Further, the GI50 in experiment [7], in [8], in experiment [9], in experiment [10], in experiment [11] and in experiment [12] was > 100 µM (inactive) throughout. Besides, the GI50 in experiment [13] was > 100 µM (inactive); in experiment [14], > 100 µM (inactive); in experiment [15], above 100 µM; in [16], > 100 µM (inactive); in experiment [17], > 100 µM (inactive); in [18] it was > 100 µM (inactive). The GI50 in experiment [19] is > 100 µM (inactive).
For `COc1cc2ccnc3c(=C(SC)SC)c(=O)c(c1OC)c23`, the GI50 in experiment [2] is 12.9 µM (inactive); in experiment [3] it was 3.37 µM (inactive); in [4] it was > 100 µM (inactive); in experiment [6], 2.87 µM (inactive); in [8], 17.8 µM (inactive); in experiment [20], 4.65 µM (inactive). The GI50 is 3.29 µM (inactive) in experiment [9]; 13.6 µM (inactive) in experiment [10]; 42.7 µM (inactive) in [12]; 10.6 µM (inactive) in experiment [14]; 11.9 µM in experiment [15]; 11 µM (inactive) in experiment [16]. Moreover, the GI50 was 53.2 µM (inactive) in experiment [17] and 14.6 µM (inactive) in experiment [19].
Turning to `COc1cc(=O)oc(/C=C/CO)c1C`, the GI50 in [2], in [3], in [4], in experiment [6], in experiment [7] and in [8] was > 100 µM (inactive) in each case. In addition, the GI50 in [20], in experiment [10], in [11], in [12], in [14] and in [16] was > 100 µM (inactive) throughout. In addition, the GI50 in experiment [17] and in experiment [19] was > 100 µM (inactive) in each case.
`O=S(O)CCCCSSCc1ccccc1CSSCCCCS(=O)O`: the GI50 in experiment [2] is 18.7 µM (inactive); in experiment [3], 15.5 µM (inactive); in [4] it was 35.3 µM (inactive); in experiment [6], 10.5 µM (inactive); in experiment [8] it was 10.5 µM (inactive); in [20], 11.4 µM (inactive). In addition, the GI50 in experiment [9] was 10.8 µM (inactive); in experiment [10], 3.87 µM (inactive); in experiment [12], 46.7 µM (inactive); in experiment [14] it was 17.1 µM (inactive); in experiment [15] it was 19.1 µM; in experiment [16], > 100 µM (inactive). The GI50 in experiment [17] is 56.2 µM (inactive); in experiment [19] it was 11.1 µM (inactive).
Regarding `COc1ccc(C2Oc3cc(OC)c(O)c(C)c3[C@H]2C)cc1` (stereo partly drawn), the GI50 in experiment [2] was 54.2 µM (inactive); in experiment [3], > 100 µM (inactive); in experiment [4], > 100 µM (inactive); in experiment [6], 40.5 µM (inactive); in experiment [7], 26.9 µM (inactive); in experiment [8], > 100 µM (inactive). Moreover, the GI50 in experiment [20] was 71.6 µM (inactive); in experiment [9] it was > 10 µM (inactive); in experiment [10], > 100 µM (inactive); in experiment [12] it was > 100 µM (inactive); in experiment [14], 70 µM (inactive); in experiment [15], 58.9 µM. Moreover, the GI50 is > 100 µM (inactive) in [16], 26.9 µM (inactive) in experiment [17] and 17.1 µM (inactive) in [19].
For the molecule `COc1cc2c[n+](C)c3c4cc(OC)c(OC)cc4c(OCc4ccccc4)cc3c2cc1OC`, the GI50 in experiment [1] was 0.32 µM (active); in [2] it was > 69.3 µM (inactive); in experiment [3], 0.263 µM (active); in experiment [4] it was 1.86 µM (inactive); in experiment [5], 0.578 µM (active); in experiment [6], 1.31 µM (inactive). In addition, the GI50 in experiment [7] is 0.231 µM (active); in experiment [8], 0.434 µM (active); in experiment [9] it was 5.28 µM (inactive); in [10], 0.706 µM (active); in [11] it was 0.14 µM (active); in [12], 0.0273 µM (active). The GI50 in [13] is 0.0986 µM (active); in experiment [14], 1.91 µM (inactive); in experiment [15], above 100 µM; in [16], 0.634 µM (active); in [17], 0.0681 µM (active); in experiment [18] it was > 100 µM (inactive). Moreover, the GI50 in [19] is > 100 µM (inactive).

The record behind these values is ChEMBL document CHEMBL1201862, “PubChem BioAssay data set” (2004).
